# Laboratory results taken from US4748254A, “Mixed carboxylato platinum (II) complexes” (priority 1984, dated 1988).
# Key:
# [1] = system: hepatoma 22a; assay: Increase of lifespan of mice with grafted hepatoma 22a; format: in vivo
# Procedure: (§1) As the criteria for the antitumor activity for leukosises and ascytic forms of tumors the increase of the lifespan of treated animals (ILS, %)
# (§2) T--average lifespan of treated animals;
# (§3) C--average lifespan of control animals;
# (§4) The experiments were carried out on line mice and their hybrides of the first generation. […]
# [2] = system: hemocytoblastosis La; assay: Increase of lifespan of mice with hemocytoblastosis La; format: in vivo
# Procedure: as §1, §2, §3, §4
# [3] = system: plasmacytoma MOPC-406; assay: Increase of lifespan of mice with plasmacytoma MOPC-406; format: in vivo; conditions: for curing of animals with plasmocytoma MOPC-406: in words
# Procedure: as §1, §2, §3, §4
# [4] = system: mammal adenocarcinoma Ca 755; assay: Tumor growth inhibition of mammal adenocarcinoma Ca 755; format: in vivo, mice
# Procedure: and for a solid tumor--tumor growth inhibition (TGI, %)
# O--volume of tumors in the group of treated animals;
# K--volume of tumors in the control group were employed.
# as §4
# [5] = system: lymphoid leukosis L-1210; assay: Increase of lifespan of mice with lymphoid leukosis L-1210; format: in vivo; conditions: 3 mg/kg i.p. in 0.9% NaCl, days of treatment 1-5
# [6] = system: plasmacytoma of mice ADJ/PC6A; conditions: cited from earlier work
# [7] = system: tumors; conditions: in words; cited from earlier work
# [8] = system: lymphoid leukosis L-1210; assay: Increase of lifespan of mice with lymphoid leukosis L-1210; format: in vivo
# Procedure: as §1, §2, §3
# The experiments were carried out on line mice and their hybrides of the first generation. […] The compounds were administered to animals intraperitoneally in a 5% solution of glucose once or daily over 5 days within the time limits adopted in experimental studies of corresponding tumors.
# [9] = Storage stability and hygroscopicity; format: physicochemical; conditions: in words
# [10] = cited from earlier work
# [11] = cited from earlier work; remark: listed apart in the source
# [12] = system: graft strains of tumors and leukoses of mice; assay: Antitumor activity, overall statement; format: in vivo; conditions: in words
# Procedure: The antitumor activity of the compounds according to the present invention has been studied on a number of strains of grafted solid tumors and leukosises of mice: plasmacytoma MOPC-406, lymphoid leukosis L-1210, hemocytoblastosis La, hepatoma 22a, mammal adenocarcinoma Ca 755.
# The experiments were carried out on line mice and their hybrides of the first generation. […] The compounds were administered to animals intraperitoneally in a 5% solution of glucose once or daily over 5 days within the time limits adopted in experimental studies of corresponding tumors. […]
# [13] = 5 mg/kg i.p. in 0.9% NaCl, day 3
# [14] = 2 mg/kg i.p. in 0.9% NaCl, days of treatment 2-5
# [15] = 15-25 mg/kg i.p., days of treatment 2-6
# [16] = 30 mg/kg i.p., days of treatment 2-6
# [17] = 20-40 mg/kg i.p., days of treatment 2-6
# [18] = 20-25 mg/kg i.p., days of treatment 2-6
# [19] = 20 mg/kg i.p., days of treatment 7-11
molecule,measurement,setting,value
"N.N.[Cl][Pt][Cl] [DDP, cis-dichlorodiammineplatinum(II), reference compound]","Increase of lifespan, %, Hepatoma 22a",[1]; [13],120%
same,"number of cured animals / animals employed, Hepatoma 22a",[1]; [13],0/6
same,curing of animals with hepatoma 22a,[1]; in words,no curing of animals
same,"Increase of lifespan, %, La","[2]; 8 mg/kg i.p. in 0.9% NaCl, day 1",200%
same,"Increase of lifespan, %, MOPC-406",[3]; [14],140%
same,"number of cured animals / animals employed, MOPC-406",[3]; [14],0/6
same,curing of animals with plasmocytoma MOPC-406,[3],no curing of animals
same,"Tumor growth inhibition, %, Ca-755","[4]; 8 mg/kg i.p. in 0.9% NaCl, day 2",95%
same,"Increase of lifespan, %, L-1210",[5],116%
same,ID90 (dose inhibiting growth of tumors by 90%),"[6]; plasmacytoma ADJ/PC6A, mice",1.6 mg/kg
same,antitumor activity,[7],high antitumor activity
same,spectrum of action on diverse tumors,[7],remarkably wide spectrum of action on diverse tumors
"N.NC1CC1.O=C([O-])CC(=O)[O-].[Pt+2] [Example 1, malonatoammine(cyclopropylamine)platinum(II)]","Increase of lifespan, %, Hepatoma 22a",[1]; [15],85%
same,"number of cured animals / animals employed, Hepatoma 22a",[1]; [15],0/6
same,"Increase of lifespan, %, L-1210",[8]; [15],39%
same,"Increase of lifespan, %, L-1210","[8]; 60-70 mg/kg i.p., day 2",48%
same,"Increase of lifespan, %, La",[2]; [15],29%
same,"Increase of lifespan, %, MOPC-406","[3]; 60 mg/kg i.p., day 7",150%
same,"number of cured animals / animals employed, MOPC-406","[3]; 60 mg/kg i.p., day 7",1/6
same,"Increase of lifespan, %, MOPC-406",[3]; [15],268%
same,"number of cured animals / animals employed, MOPC-406",[3]; [15],2/6
same,"Increase of lifespan, %, MOPC-406","[3]; 60-70 mg/kg i.p., day 2",177%
same,"number of cured animals / animals employed, MOPC-406","[3]; 60-70 mg/kg i.p., day 2",1/6
same,curing of animals with plasmocytoma MOPC-406,[3],ensure curing of a certain number of animals (up to 100%)
same,"Tumor growth inhibition, %, Ca-755",[4]; [15],89%
"N.NC1CCC1.O=C1[O][Pt][O]C(=O)C1O [Example 3, (hydroxymalonato)ammine(cyclobutylamine)platinum(II)]","Increase of lifespan, %, L-1210","[8]; 25 mg/kg i.p., days of treatment 2-6",100%
same,"Increase of lifespan, %, L-1210","[8]; 60 mg/kg i.p., day 2",71%
same,"Tumor growth inhibition, %, Ca-755","[4]; 20 mg/kg i.p., days of treatment 2-6",70%
"[NH2][Pt]1([NH]C2CCCC2)[O]C(=O)CC(=O)[O]1 [Example 6, malonatoammine(cyclopentylamine)platinum(II)]","Increase of lifespan, %, Hepatoma 22a",[1]; [15],140%
same,"number of cured animals / animals employed, Hepatoma 22a",[1]; [15],2/6
same,curing of animals with hepatoma 22a,[1]; in words,cure a portion of animals
same,"Increase of lifespan, %, L-1210",[8]; [15],36%
same,"Increase of lifespan, %, L-1210","[8]; 40-60 mg/kg i.p., day 2",45%
same,"Increase of lifespan, %, La",[2]; [15],21%
same,"Increase of lifespan, %, MOPC-406","[3]; 50 mg/kg i.p., day 7",329%
same,"number of cured animals / animals employed, MOPC-406","[3]; 50 mg/kg i.p., day 7",3/6
same,"Increase of lifespan, %, MOPC-406",[3]; [15],286%
same,"number of cured animals / animals employed, MOPC-406",[3]; [15],3/6
same,"Increase of lifespan, %, MOPC-406","[3]; 40-60 mg/kg i.p., day 2",300%
same,"number of cured animals / animals employed, MOPC-406","[3]; 40-60 mg/kg i.p., day 2",5/6
same,curing of animals with plasmocytoma MOPC-406,[3],ensure curing of a certain number of animals (up to 100%)
same,"Tumor growth inhibition, %, Ca-755",[4]; [15],76%
same,hygroscopicity,[9],very hygroscopic
"[NH2][Pt]1([NH]C2CCCCC2)[O]C(=O)CCC(=O)[O]1 [Example 15, succinatoammine(cyclohexylamine)platinum(II)]","Increase of lifespan, %, L-1210",[8]; [16],108%
same,"Increase of lifespan, %, L-1210","[8]; 150 mg/kg i.p., day 2",120%
same,"Tumor growth inhibition, %, Ca-755",[4]; [16],72%
"N.NCC1CCCO1.O.O=C1C[C@H](O)C(=O)[O][Pt][O]1 [Example 21, S(-)-malatoammine(tetrahydrofurfurylamine)platinum(II)]","Increase of lifespan, %, Hepatoma 22a",[1]; [17],340%
same,"number of cured animals / animals employed, Hepatoma 22a",[1]; [17],2/6
same,curing of animals with hepatoma 22a,[1]; in words,cure a portion of animals
same,"Increase of lifespan, %, L-1210",[8]; [17],120%
same,"Increase of lifespan, %, MOPC-406",[3]; [17],280%
same,"number of cured animals / animals employed, MOPC-406",[3]; [17],3/6
same,curing of animals with plasmocytoma MOPC-406,[3],ensure curing of a certain number of animals (up to 100%)
same,"Tumor growth inhibition, %, Ca-755",[4]; [17],95%
[Cl][Pt-2]([Cl])([NH2+]C1CCCC1)[NH2+]C1CCCC1 [cis-[PtCl2 (cyclo-C5 H9 NH2)2]],ID90 (dose inhibiting growth of tumors by 90%),"[6]; plasmacytoma ADJ/PC6A, mice",2.4 mg/kg
same,therapeutical index TI=LD50/ID90,"[6]; plasmacytoma ADJ/PC6A, mice",200
same,solubility in water,"[10]; prior art compound, in words",substantially insoluble in water
same,therapeutic response or side effect,[11]; fine suspensions in sesame oil or aqueous solloids stabilized by polyvinylpyrrolidone,no therapeutic response or a side effect
same,local irritation,[11]; in vivo,local irritation upon administration of an oily suspension
same,retention at the spot of the injection,[11]; in vivo,substantially remains at the spot of the injection
N.NC1CCCC1.[Cl][Pt][Cl] [cis-[PtCl2 NH3 (cyclo-C5 H9 NH2)]],toxicity compared with DDP,"[6]; in words, versus DDP",slightly more toxic than DDP
same,LD50,"[6]; mice, plasmacytoma ADJ/PC6A tests",11.0 mg/kg
same,ID90 (dose inhibiting growth of tumors by 90%),"[6]; plasmacytoma ADJ/PC6A, mice",0.5 mg/kg
same,"90% tumor growth inhibiting dose, times less than that of DDP","[6]; plasmacytoma ADJ/PC6A, versus DDP",3 times
same,"90% tumor growth inhibiting dose, times less than that of cis-[PtCl2 (cyclo-C5 H9 NH2)2 ]","[6]; plasmacytoma ADJ/PC6A, versus cis-[PtCl2 (cyclo-C5 H9 NH2)2 ]",~5 times
same,solubility in 0.9% NaCl,[10]; 0.9% NaCl,about 1 mg/ml
same,advantage over parent compounds with identical ligands,[7],absence of advantages of this mixed complex as compared to the parent compounds with identical ligands
NC1CCCCC1.NC1CCCCC1.[Cl][Pt][Cl] [complex with cyclohexylamine],therapeutical index TI=LD50/ID90,"[6]; plasmacytoma ADJ/PC6A, mice",above 267
RS-malatoammine(cyclopentylamine)platinum(II) [Example 5],"Increase of lifespan, %, Hepatoma 22a",[1]; [18],322%
same,"number of cured animals / animals employed, Hepatoma 22a",[1]; [18],2/6
same,curing of animals with hepatoma 22a,[1]; in words,cure a portion of animals
same,"Increase of lifespan, %, L-1210",[8]; [18],156%
same,"Increase of lifespan, %, MOPC-406",[3]; [18],350%
same,"number of cured animals / animals employed, MOPC-406",[3]; [18],4/6
same,curing of animals with plasmocytoma MOPC-406,[3],ensure curing of a certain number of animals (up to 100%)
same,"Tumor growth inhibition, %, Ca-755",[4]; [18],95%
S(-)malatoammine(cyclopentylamine)platinum(II) [Example 4],"Increase of lifespan, %, Hepatoma 22a",[1]; [15],225%
same,"number of cured animals / animals employed, Hepatoma 22a",[1]; [15],4/6
same,curing of animals with hepatoma 22a,[1]; in words,cure a portion of animals
same,curing of animals with hepatoma 22a,[1]; optimal doses,up to 66%
same,"Increase of lifespan, %, L-1210",[8]; [15],195%
same,"Increase of lifespan, %, L-1210","[8]; 60-80 mg/kg i.p., day 2",101%
same,extension of life span of animals with leukemia L-1210,[8]; optimal doses,195%
same,"Increase of lifespan, %, La",[2]; [15],113%
same,lifespan of animals with hemocytoblastosis La,[2]; in words,considerably extends the lifespan
same,extension of life span of animals with hemocytoblastosis La,[2]; optimal doses,113%
same,"Increase of lifespan, %, MOPC-406",[3]; [19],356%
same,"number of cured animals / animals employed, MOPC-406",[3]; [19],3/6
same,"Increase of lifespan, %, MOPC-406",[3]; [15],327%
same,"number of cured animals / animals employed, MOPC-406",[3]; [15],6/6
same,"Increase of lifespan, %, MOPC-406","[3]; 60-80 mg/kg i.p., day 2",310%
same,"number of cured animals / animals employed, MOPC-406","[3]; 60-80 mg/kg i.p., day 2",5/6
same,curing of animals with plasmocytoma MOPC-406,[3],ensure curing of a certain number of animals (up to 100%)
same,curing of animals with plasmacytoma MOPC-406,[3]; optimal doses,up to 100%
same,"Tumor growth inhibition, %, Ca-755",[4]; [15],96%
same,hygroscopicity,[9],hydroscopic
same,antitumor activity,[12],highest antitumor activity among the compounds according to the present invention
